Reference: ChEMBL document CHEMBL1141970, “Synthesis and chloroquine-enhancing activity of Na-deacetyl-ferrocenoyl-strychnobrasiline” (2005)

Assays:
[1] = tested on: Plasmodium falciparum; assay: Percent parasitemia after 0.75 mg/kg dose; type: functional, K1
[2] = tested on: Plasmodium falciparum; assay: Percent parasitaemia after 10 mg/kg oral dose; type: functional, K1
[3] = tested on: Plasmodium falciparum; assay: Percent inhibition of Plasmodium falciparum FCM29 after 10 mg/kg oral dose; type: functional
[4] = tested on: Plasmodium falciparum; assay: Percent inhibition of Plasmodium falciparum FCM29 after 0.75 mg/kg subcutaneous dose; type: functional; details: sc
[5] = tested on: Plasmodium falciparum; assay: Percent parasitemia after 5 mg/kg peroral dose; type: functional, organism-based; design: dose 5 mg/kg; details: K1, at 5 mg/kg
[6] = tested on: Plasmodium falciparum; assay: Percent inhibition of Plasmodium falciparum FCM29 after 5 mg/kg oral dose; type: functional, organism-based; design: dose 5 mg/kg; details: K1, at 5 mg/kg

Row | Compound | Parasitemia [1] | Parasitemia [2] | inhibition in vivo at 10 mg/kg [3] | inhibition in vivo at 0.75 mg/kg [4] | Parasitemia [5] | Parasitemia ([2]; K1, at 10 mg/kg) | inhibition [6] | inhibition ([3]; at 10 mg/kg)
1 | CCN(CC)CCCC(C)Nc1ccnc2cc(Cl)ccc12 (stereo not drawn) [CHLOROQUINE] | 32.2% | 0.1% | 99.8% | 17.2% |  |  |  | 
2 | Ferrocenoyl-strychnobrasiline derivative |  |  |  |  | 36.1% | 38.4% | 7.2% | 1.3%
